Measured values as given in paper PMC8887546, “Design and Synthesis of Brain Penetrant Glycopeptide Analogues of PACAP With Neuroprotective Potential for Traumatic Brain Injury and Parkinsonism” (Frontiers in drug discovery, 2022).

Assays:
Type in all cases: cell-based
[1] = target: T1, human VPAC1 receptor (Homo sapiens, UniProt P32241); assay: cAMP stimulation in CHO cells expressing VPAC1; details: for Emax: CHO, read-out: VPAC1 Emax; for EC50: read-out: VPAC1 EC50; for Receptor selectivity ratio VPAC1/PAC1: ratio of cAMP EC50 values
T1 construct: expressed in transfected cells; host or cells: CHO cells (G418 selection)
T1 sequence (P32241 31-457): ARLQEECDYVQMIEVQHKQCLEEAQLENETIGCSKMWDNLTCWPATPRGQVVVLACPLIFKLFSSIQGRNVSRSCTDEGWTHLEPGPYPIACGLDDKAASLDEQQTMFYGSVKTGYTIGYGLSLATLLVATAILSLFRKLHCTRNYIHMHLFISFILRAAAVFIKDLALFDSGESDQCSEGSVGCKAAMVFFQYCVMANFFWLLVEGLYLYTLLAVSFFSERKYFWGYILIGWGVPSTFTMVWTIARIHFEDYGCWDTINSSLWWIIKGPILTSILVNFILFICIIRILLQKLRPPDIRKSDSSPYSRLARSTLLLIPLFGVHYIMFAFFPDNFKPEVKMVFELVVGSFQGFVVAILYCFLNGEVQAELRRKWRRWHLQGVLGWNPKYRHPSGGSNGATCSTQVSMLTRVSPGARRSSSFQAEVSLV

[2] = target: T2, human VPAC2 receptor (Homo sapiens, UniProt P41587); assay: cAMP stimulation in CHO cells expressing VPAC2; details: for Emax: CHO; for Receptor selectivity ratio VPAC2/PAC1 / Receptor selectivity ratio VPAC2/VPAC1: ratio of cAMP EC50 values
T2 construct: expressed in transfected cells; host or cells: CHO cells (G418 selection)
T2 sequence (P41587 24-438): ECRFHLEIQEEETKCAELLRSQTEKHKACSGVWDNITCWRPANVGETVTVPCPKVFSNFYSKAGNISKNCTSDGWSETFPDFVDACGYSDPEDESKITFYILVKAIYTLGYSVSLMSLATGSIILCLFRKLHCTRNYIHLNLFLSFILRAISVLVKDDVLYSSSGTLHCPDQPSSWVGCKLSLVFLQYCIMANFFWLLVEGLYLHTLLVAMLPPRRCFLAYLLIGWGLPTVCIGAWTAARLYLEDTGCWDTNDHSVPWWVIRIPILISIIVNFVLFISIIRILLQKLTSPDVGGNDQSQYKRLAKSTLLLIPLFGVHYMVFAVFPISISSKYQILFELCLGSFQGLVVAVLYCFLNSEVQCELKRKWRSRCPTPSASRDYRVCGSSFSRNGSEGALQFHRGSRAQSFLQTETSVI
Procedure: (§1) Briefly, human PAC1, VPAC1, and VPAC2 receptors expressed in CHO cells were used for all experiments. Cells were grown in 50:50 DMEM-F12 medium with 10% heat-inactivated fetal bovine serum, 1X penicillin-streptomycin supplement, and 500 μg/ml G418 (neomycin) to maintain selection (all from ThermoFisher) at 37°C with 5% CO2 atmosphere. For the cAMP assay, cells were seeded at 20,000 cells/well in a 96 well plate, recovered overnight, then serum starved for 4 h. The cells were then incubated with 500 μM IBMX for 20 min, followed by agonist concentration curves in 500 μM IBMX media for 10 min. The reaction was terminated, boiled, then collected, followed by competition with 7 μg of bovine protein kinase A (Sigma-Aldrich) and ∼1 pmol of ^3H-cAMP (PerkinElmer). The assay was incubated at room temp for 1 h, then collected onto GF/B filter plates and the data read using a MicroBeta2 scintillation counter (PerkinElmer).

[3] = target: T3, human PAC1 receptor (Homo sapiens, UniProt P41586); assay: cAMP stimulation in CHO cells expressing PAC1; details: for Emax: CHO
T3 construct: expressed in transfected cells; host or cells: CHO cells (G418 selection)
T3 sequence (P41586 21-468): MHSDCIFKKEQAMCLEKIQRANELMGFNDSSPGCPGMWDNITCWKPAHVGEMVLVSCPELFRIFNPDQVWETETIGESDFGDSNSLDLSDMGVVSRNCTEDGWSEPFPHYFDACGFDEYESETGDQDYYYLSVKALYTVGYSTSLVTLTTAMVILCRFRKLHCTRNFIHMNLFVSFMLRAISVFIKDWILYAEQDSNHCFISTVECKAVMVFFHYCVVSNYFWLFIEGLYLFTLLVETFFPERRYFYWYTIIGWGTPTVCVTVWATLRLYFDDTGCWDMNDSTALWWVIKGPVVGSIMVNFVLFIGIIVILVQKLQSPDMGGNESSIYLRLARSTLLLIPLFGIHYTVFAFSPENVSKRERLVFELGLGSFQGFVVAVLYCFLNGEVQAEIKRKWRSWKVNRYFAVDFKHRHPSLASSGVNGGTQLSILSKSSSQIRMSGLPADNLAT
Procedure: as §1

Emax [1] [%]	EC50 [1] [nM]	EC50 [2] [nM]	EC50 [3] [nM]	Emax [3] [%]	Receptor selectivity ratio VPAC1/PAC1 [1]	Emax [2] [%]	Receptor selectivity ratio VPAC2/PAC1 [2]	Receptor selectivity ratio VPAC2/VPAC1 [2]	Selectivity for VPAC1 over PAC1 ([1]; from cAMP EC50 values) [fold]	Compound
93	5.9	> 2500	> 250	-79	–	–	–	–	–	CCC[C@H](NC(=O)[C@H](CCC(N)=O)NC(=O)[C@H](CCCCN)NC(=O)[C@H](CCCNC(=N)N)NC(=O)[C@H](Cc1ccc(O)cc1)NC(=O)[C@H](CCCNC(=N)N)NC(=O)[C@H](CO)NC(=O)[C@H](Cc1ccc(O)cc1)NC(=O)[C@H](CO)NC(=O)[C@H](CC(=O)O)NC(=O)[C@@H](NC(=O)[C@H](Cc1ccccc1)NC(=O)[C@@H](NC(=O)CNC(=O)[C@H](CC(=O)O)NC(=O)[C@@H](CO)NC(=O)[C@@H](N)Cc1c[nH]cn1)[C@@H](C)CC)[C@@H](C)O)C(=O)N[C@@H](C)C(=O)N[C@H](C(=O)N[C@@H](CCCCN)C(=O)N[C@@H](CCCCN)C(=O)N[C@@H](Cc1ccc(O)cc1)C(=O)N[C@@H](CC(C)C)C(=O)N[C@@H](C)C(=O)N[C@@H](C)C(=O)N[C@@H](CO[C@@H]1O[C@H](CO)[C@@H](O)[C@H](O)[C@H]1O)C(=O)N[C@@H](CC(C)C)C(N)=O)C(C)C [CRA3002]
108	202	737	159	76	1.27	65	4.64	3.65	–	CCC[C@H](NC(=O)[C@H](CCC(N)=O)NC(=O)[C@H](CCCCN)NC(=O)[C@H](CCCNC(=N)N)NC(=O)[C@H](Cc1ccc(O)cc1)NC(=O)[C@H](CCCNC(=N)N)NC(=O)[C@H](CO)NC(=O)[C@H](Cc1ccc(O)cc1)NC(=O)[C@H](CO)NC(=O)[C@H](CC(=O)O)NC(=O)[C@@H](NC(=O)[C@H](Cc1ccccc1)NC(=O)[C@@H](NC(=O)CCNC(=O)[C@H](CC(=O)O)NC(=O)[C@@H](CO)NC(=O)[C@@H](N)Cc1c[nH]cn1)[C@@H](C)CC)[C@@H](C)O)C(=O)N[C@@H](C)C(=O)N[C@H](C(=O)N[C@@H](CCCCN)C(=O)N[C@@H](CCCCN)C(=O)N[C@@H](Cc1ccc(O)cc1)C(=O)N[C@@H](CC(C)C)C(=O)N[C@@H](C)C(=O)N[C@@H](C)C(=O)N[C@H](C(=O)N[C@@H](CC(C)C)C(=O)N[C@@H](CO[C@@H]1O[C@H](CO)[C@@H](O)[C@H](O)[C@H]1O)C(N)=O)C(C)C)C(C)C [CRA3008]
107	–	–	–	89	–	112	–	–	–	CCC[C@H](NC(=O)[C@H](CCC(N)=O)NC(=O)[C@H](CCCCN)NC(=O)[C@H](CCCNC(=N)N)NC(=O)[C@H](Cc1ccc(O)cc1)NC(=O)[C@H](CCCNC(=N)N)NC(=O)[C@H](CO)NC(=O)[C@H](Cc1ccc(O)cc1)NC(=O)[C@H](CO)NC(=O)[C@H](CC(=O)O)NC(=O)[C@@H](NC(=O)[C@H](Cc1ccccc1)NC(=O)[C@@H](NC(=O)[C@H](C)NC(=O)[C@H](CC(=O)O)NC(=O)[C@@H](CO)NC(=O)[C@@H](N)Cc1c[nH]cn1)[C@@H](C)CC)[C@@H](C)O)C(=O)N[C@@H](C)C(=O)N[C@H](C(=O)N[C@@H](CCCCN)C(=O)N[C@@H](CCCCN)C(=O)N[C@@H](Cc1ccc(O)cc1)C(=O)N[C@@H](CC(C)C)C(=O)N[C@@H](C)C(=O)N[C@@H](C)C(=O)N[C@H](C(=O)N[C@@H](CC(C)C)C(=O)N[C@@H](CO[C@@H]1O[C@H](CO)[C@@H](O)[C@H](O)[C@H]1O)C(N)=O)C(C)C)C(C)C [CRA3010]
91	34.2	223	784	68	0.04	99	0.28	6.52	~23	CCC[C@H](NC(=O)[C@H](CCC(N)=O)NC(=O)[C@H](CCCCN)NC(=O)[C@H](CCCNC(=N)N)NC(=O)[C@H](Cc1ccc(O)cc1)NC(=O)[C@H](CCCNC(=N)N)NC(=O)[C@H](CO)NC(=O)[C@H](Cc1ccc(O)cc1)NC(=O)[C@H](CO)NC(=O)[C@H](CC(=O)O)NC(=O)[C@@H](NC(=O)[C@H](Cc1ccccc1)NC(=O)[C@@H](NC(=O)C(C)(C)NC(=O)[C@H](CC(=O)O)NC(=O)[C@@H](CO)NC(=O)[C@@H](N)Cc1c[nH]cn1)[C@@H](C)CC)[C@@H](C)O)C(=O)N[C@@H](C)C(=O)N[C@H](C(=O)N[C@@H](CCCCN)C(=O)N[C@@H](CCCCN)C(=O)N[C@@H](Cc1ccc(O)cc1)C(=O)N[C@@H](CC(C)C)C(=O)N[C@@H](C)C(=O)N[C@@H](C)C(=O)N[C@H](C(=O)N[C@@H](CC(C)C)C(=O)N[C@@H](CO[C@@H]1O[C@H](CO)[C@@H](O)[C@H](O)[C@H]1O)C(N)=O)C(C)C)C(C)C [CRA3011]
113	20.9	650	88.9	74	0.24	88	7.31	31.10	–	CCC[C@H](NC(=O)[C@H](CCC(N)=O)NC(=O)[C@H](CCCCN)NC(=O)[C@H](CCCNC(=N)N)NC(=O)[C@H](Cc1ccc(O)cc1)NC(=O)[C@H](CCCNC(=N)N)NC(=O)[C@H](CO)NC(=O)[C@H](Cc1ccc(O)cc1)NC(=O)[C@H](CO)NC(=O)[C@H](CC(=O)O)NC(=O)[C@@H](NC(=O)[C@H](Cc1ccccc1)NC(=O)[C@H](CC(C)C)NC(=O)CNC(=O)[C@H](CC(=O)O)NC(=O)[C@@H](CO)NC(=O)[C@@H](N)Cc1c[nH]cn1)[C@@H](C)O)C(=O)N[C@@H](C)C(=O)N[C@H](C(=O)N[C@@H](CCCCN)C(=O)N[C@@H](CCCCN)C(=O)N[C@@H](Cc1ccc(O)cc1)C(=O)N[C@@H](CC(C)C)C(=O)N[C@@H](C)C(=O)N[C@@H](C)C(=O)N[C@H](C(=O)N[C@@H](CC(C)C)C(=O)N[C@@H](CO[C@@H]1O[C@H](CO)[C@@H](O)[C@H](O)[C@H]1O)C(N)=O)C(C)C)C(C)C [CRA3013]
104	120	866	448	72	0.27	92	1.93	7.22	–	CCC[C@H](NC(=O)[C@H](CCC(N)=O)NC(=O)[C@H](CCCCN)NC(=O)[C@H](CCCNC(=N)N)NC(=O)[C@H](Cc1ccc(O)cc1)NC(=O)[C@H](CCCNC(=N)N)NC(=O)[C@H](CO)NC(=O)[C@H](Cc1ccc(O)cc1)NC(=O)[C@H](CO)NC(=O)[C@H](CC(=O)O)NC(=O)[C@@H](NC(=O)[C@H](Cc1ccccc1)NC(=O)[C@@H](NC(=O)CNC(=O)[C@H](CC(=O)O)NC(=O)[C@@H](CO)NC(=O)[C@@H](N)Cc1c[nH]cn1)C(C)(C)C)[C@@H](C)O)C(=O)N[C@@H](C)C(=O)N[C@H](C(=O)N[C@@H](CCCCN)C(=O)N[C@@H](CCCCN)C(=O)N[C@@H](Cc1ccc(O)cc1)C(=O)N[C@@H](CC(C)C)C(=O)N[C@@H](C)C(=O)N[C@@H](C)C(=O)N[C@H](C(=O)N[C@@H](CC(C)C)C(=O)N[C@@H](CO[C@@H]1O[C@H](CO)[C@@H](O)[C@H](O)[C@H]1O)C(N)=O)C(C)C)C(C)C [CRA3015]
